Results taken from US20250186397A1, “COMPOUNDS FOR THE USE IN THE TREATMENT OF MOOD DISORDERS” (Kanna Health Ltd, priority 2022, published 2025).

Tests used:
C57B6J mice [1] = assay: Female urine sniffing test after chronic mild unpredictable stress; assay type: in vivo; settings: 60 minutes pre-test; for time sniffing female estrous urine: relative to vehicle
Description: FIG. 2. Effect of mesembrenol (0.3, 1 and 3 mg/kg, i.p.) administered 60 minutes pre-test on preference to examine the female estrous urine treat following chronic mild unpredictable stress. Data represents total time (sec) engaged in sniffing and investigating the urine soaked cotton tip during a 3 minute trial period. Analysis by one-way ANOVA followed by multiple comparisons with Sidak's correction; **-****P<0.01-0.0001 vs stress vehicle (n=8).
FIG. 3. Effect of mesembranol (0.3, 1 and 3 mg/kg, i.p.) administered 60 minutes pre-test on preference to examine the female estrous urine treat following chronic mild unpredictable stress. Data represents total time (sec) engaged in sniffing and investigating the urine soaked cotton tip during a 3 minute trial period. Analysis by one-way ANOVA followed by multiple comparisons with Sidak's correction; **-****P<0.01-0.0001 vs stress vehicle (n=8).
(§1) C57BI6J mice, will be housed in groups of 4, will be exposed to a variety of mild stressors for a period of four weeks.
(§2) The stressors will include wet bedding, 40° cage tilt, introduction of intruder mouse from different experimental cohort, food deprivation, water deprivation, overnight illumination, and presence of soiled rat bedding as an aversive odour. These stressors are randomly scheduled over each weekly period and repeated for the duration of the experiment. Each stressor is applied for a period of 8-16 hours.
(§3) A cohort of depression-like phenotype in adult male C57B6J mice is produced by employing a four-week mild unpredictable stress protocol.
Following two weeks treatment with imipramine, or acute treatment with vehicle or the test compounds (mesembrenol and mesembranol), the reversal of stress induced depression-like behaviour was determined using a measure of anhedonia, female urine sniffing preference.
The test compounds were evaluated at three doses with comparison made to vehicle control, no stress control and the reference control imipramine (n=8). […]
Animals are subsequently transferred to individual cages and exposed for a 3 minute period to a cotton tipped applicator which is dipped in water and attached to the side of the cage. The time each animal spends sniffing the water-impregnated cotton tipped applicator is scored manually by the observer who is blinded to group treatments.
Following a 45 minute interval in the absence of a cotton tipped applicator, an applicator dipped in the urine of a female mice in oestrus is presented and the time spent sniffing the urine-impregnated cotton bud is recorded over a 3 minute period. […]
Testing is conducted under low level red light and behaviour is scored remotely via a video camera placed above the cage.

C57B6J mice [2] = assay: Sucrose preference test after chronic mild unpredictable stress; assay type: in vivo; settings: relative to stress vehicle; for sucrose preference: all time points tested
Description: FIG. 4. Effect of mesembrenol (0.3, 1 and 3 mg/kg, i.p.) administered 30 minutes pre-test on sucrose preference following chronic mild unpredictable stress. Data represents cumulative % preference for sucrose solution over water at the 4, 8, 12 and 24 hour timepoints of the test period. Analysis by repeat measures two-way ANOVA followed by multiple comparisons with Dunnet's correction; *-****P<0.05-0.0001 vs stress vehicle (n=8).
FIG. 5. Effect of mesembranol (0.3, 1 and 3 mg/kg, i.p.) administered 30 minutes pre-test on sucrose preference following chronic mild unpredictable stress. Data represents cumulative % preference for sucrose solution over water at the 4, 8, 12 and 24 hour timepoints of the test period. Analysis by two-way ANOVA followed by multiple comparisons with Sidak's correction; *-*P<0.001-0.0001 vs stress vehicle (n=8).
as §1, §2, §3
An additional readout was used to assess antidepressant-like activity of the test compounds using a further measure of anhedonia, the sucrose preference test.
During this test, mice are housed individually and provided, for 24 hours, a free choice between two bottles, one with 1% sucrose solution and another with filtered tap water.
To prevent possible effects of side preference in drinking behaviour, the position of the bottles is swapped after 12 hours. The consumption of water and sucrose solution is estimated simultaneously in control and experimental groups by weighing the bottles. The sucrose intake is calculated as an amount of consumed sucrose in mg per gram body weight. The preference for sucrose is calculated as a percentage of consumed sucrose solution of the total amount of liquid drunk.
A decrease of sucrose preference below 65%, is taken as the criterion for anhedonia. […] In addition, mice with a lower than 65% sucrose preference in other models display features of anhedonia and depression, such as an increased threshold of intracranial self-stimulation and sleep disturbances.
The effect of 2 weeks treatment with imipramine or the acute effect of the test compound or vehicle is determined over this 24 hour period.

[3] = 3 mg/kg i.p., mesembrenol p<0.001, mesembranol p<0.01

| SMILES | time sniffing female estrous urine (C57B6J mice [1]; [3]) | sucrose preference (C57B6J mice [2]; 3 mg/kg i.p.) | time sniffing female estrous urine (C57B6J mice [1]; 1 mg/kg i.p., mesembrenol p<0.01) | time sniffing female estrous urine, dose response (C57B6J mice [1]; 0.3, 1 and 3 mg/kg i.p., relative to stress vehicle) | sucrose preference (C57B6J mice [2]; 1 mg/kg i.p.) | sucrose preference, dose response (C57B6J mice [2]; 0.3, 1 and 3 mg/kg i.p., 30 minutes pre-test, all time points (4, 8, 12, 24 hour)) |
| --- | --- | --- | --- | --- | --- | --- |
| COc1ccc(C23CCC(O)CC2N(C)CC3)cc1OC (centres unmarked) [Mesembranol, 3a-(3,4-dimethoxyphenyl)-1-methyl-3,4,5,6,7,7a-hexahydro-2H-indol-6-ol] | significant increase | statistically significant increase |  |  |  |  |
| COc1ccc(C23C=CC(O)CC2N(C)CC3)cc1OC (centres unmarked) [Mesembrenol] | significant increase | significant increase | significant increase | dose dependent increase | significant increase | dose dependent increase |
